Test results taken from US7217722B2 (Kirin Beer Kabushiki Kaisha, priority 2000, dated 2007).

How the values were obtained:
[1] = system: spontaneously hypertensive male rats (SHR); experiment: Antihypertensive activity in spontaneously hypertensive rats; format: in vivo; conditions: Rattus norvegicus, po, 30 mg/kg oral, systolic pressure 6 to 7 hr after administration (data with *), mean ± SEM of 3 to 4 SHRs, read-out: Blood pressure depression, %
Experimental: This test was carried out as follows. A test compound was dissolved in purified water, or alternatively the test compound was suspended in a 5% aqueous sodium carboxymethylcellulose solution. The solution or the suspension was forcibly administered into the gaster of SHR through an oral probe. The systolic pressure of SHR was measured with a bloodless sphygmometer (BP-98A, Softron Co.) immediately before the administration of the test compound and 3 to 4 hr after the administration of the test compound or 6 to 7 hr after the administration of the test compound. The percentage of blood pressure depression was calculated by the following equation: Antihypertensive activity (%)={(blood pressure before administration of test compound−blood pressure after administration of test compound)/blood pressure before administration of test compound}×100
Each compound was administered at 30 mg/kg, and the antihypertensive activity (%) was expressed in terms of the mean value of 3 to 4 SHRs and SEM (standard error of the mean).
For data with *, the blood pressure was measured 6 to 7 hr after the administration of the test compound, and, for data with no marks, the blood pressure was measured 3 to 4 hr after the administration of the test compound.

[2] = system: anti-GBM nephritis model S.D. rats; experiment: Albuminuria amelioration activity for anti-GBM nephritis model using S.D. rats; format: in vivo, rat; conditions: oral 30 mg/kg twice daily, urine 0-24 hr after antibody, control group 794.2 ± 113.2
Experimental: Anti-GBM antibody produced by immunizing domestic rabbits with a rat-derived GBM fraction was caudointravenously administered to S.D. male rats of 8 weeks old to induce nephritis. Immediately after the administration of the antibody and six hr after the administration of the antibody, the compound of Example 300 was orally administered at 30 mg/kg. Urine was collected in a period between immediately after the administration of the antibody and 24 hr after the administration of the antibody, and the protein level of urine was measured to observe albuminuria amelioration activity.

[3] = system: anti-GBM nephritis model WKY rats; experiment: Albuminuria amelioration activity for anti-GBM nephritis model using WKY rats; format: in vivo, rat; conditions: oral 30 mg/kg twice daily for two weeks, 24 hr urine, control group 840.4 ± 82.2
Experimental: Anti-GBM antibody produced by immunizing domestic rabbits with a rat-derived GBM fraction was caudointravenously administered to WKY male rats of 9 weeks old to induce nephritis. […] During 24 hr from two weeks after the administration of the antibody, urine was collected, and the protein level of urine was measured to observe albuminuria amelioration activity.

[4] = system: Human-derived histiocyte lymphoma (U937/CCR2); experiment: Leukocyte migration inhibitory activity (MCP-1 induced migration, CHEMOTAXICELL); format: cell-based; conditions: Homo sapiens, U-937, 1 h, test compound 0.3 μM; U937/CCR2, MCP-1, 1 hr; read-out: Migration inhibition (%) ± SEM
Experimental: Human-derived histiocyte lymphoma (U937/CCR2), in which mouse-derived CCR2 had been highly expressed, was suspended in a 0.1% BSA-containing RPMI 1640 medium, to which a test compound had been added (5×10^6/ml), and the suspension was incubated for 20 min. A chemical solution (500 μl) (0.1% BSA-containing RPMI 1640 medium DMSO 1%), to which an MCP-1 ligand (1 μM) and the test compound had been added, was added to a 24-well plate. CHEMOTAXICELL was put thereon, and 200 μl of the cell suspension was added to the top layer, followed by migration under 5% carbon dioxide at 37° C. for one hr. The number of cells, which had migrated to the lower chamber, was counted with a particle count analyzer (CDA-500, SYSMEX CORPORATION), and the percentage migration inhibition was calculated by the following equation; Migration inhibition (%)={1−(number of migrated cells in the presence of test compound/number of migrated cells in the absence of test compound)}×100

**Q.** Which inhibition in vivo at 30 mg/kg [1] does the source give for `Fc1ccc(CN2CCCC(Nc3ccc4[nH]ncc4c3)C2)cc1F` (stereo not shown) [Example 300, N-[1-(3,4-difluorobenzyl)-3-piperidyl)-N-(1H-5-indazolyl)amine] here?
**A.** 24.1 ± 3.8%

**Q.** What about the “Protein level of urine (mg/kg/day) ± SEM” value [2] of the same compound?
**A.** 437.1 ± 95.9 mg/kg/day

**Q.** What about the “Protein level of urine (mg/kg/day) SEM” value [3] of the same compound?
**A.** 602.2 ± 47.3 mg/kg/day

**Q.** What about the inhibition at 0.3 µM [4] of the same compound?
**A.** 81.9 ± 11.9%
